Test results as given in the NIST ThermoML archive (doi:10.1016/j.tca.2007.03.018).

Assay: molar heat capacity at saturation pressure
Conditions: Small (less than 1 g) adiabatic calorimetry

C1C2CC3CC1CC(C14CC5CC(CC(C5)C1)C4)(C2)C3 [1,1'-biadamantane]
Conditions | molar heat capacity [J/K/mol]
306.17 K, Crystal 3 | 347.5
307.06 K, Crystal 3 | 348.5
307.82 K, Crystal 3 | 349.9
309.07 K, Crystal 3 | 351.4
309.47 K, Crystal 3 | 352.2
311.07 K, Crystal 3 | 354
311.11 K, Crystal 3 | 354.6
312.75 K, Crystal 3 | 356.8
313.06 K, Crystal 3 | 356.9
314.38 K, Crystal 3 | 359.1
315.04 K, Crystal 3 | 359.6
316.02 K, Crystal 3 | 361.4
317.02 K, Crystal 3 | 362.4
317.64 K, Crystal 3 | 363.7
319 K, Crystal 3 | 365.1
319.26 K, Crystal 3 | 366
320.52 K, Crystal 3 | 367.5
320.8 K, Crystal 3 | 367.7
321.41 K, Crystal 3 | 368.7
322.3 K, Crystal 3 | 370.2
322.43 K, Crystal 3 | 370.1
323.19 K, Crystal 3 | 371.6
324.05 K, Crystal 3 | 372.5
324.09 K, Crystal 3 | 372.8
324.98 K, Crystal 3 | 374.1
325.67 K, Crystal 3 | 375
325.87 K, Crystal 3 | 375.2
326.76 K, Crystal 3 | 376.5
327.28 K, Crystal 3 | 377.6
327.65 K, Crystal 3 | 377.8
328.53 K, Crystal 3 | 379.5
328.89 K, Crystal 3 | 380.4
329.42 K, Crystal 3 | 380.9
330.31 K, Crystal 3 | 382.3
330.5 K, Crystal 3 | 384
331.19 K, Crystal 3 | 388.1
332.05 K, Crystal 3 | 401.3
332.08 K, Crystal 3 | 395.6
332.9 K, Crystal 3 | 409.2
333.64 K, Crystal 3 | 409.5
333.73 K, Crystal 3 | 418.7
334.55 K, Crystal 3 | 433.2
335.12 K, Crystal 3 | 446.3
335.33 K, Crystal 3 | 453.8
336.07 K, Crystal 2 | 469.6
336.53 K, Crystal 2 | 499.5
336.81 K, Crystal 2 | 461.5
